Laboratory results taken from patent publication US10307425B2, “Compositions and methods for treating toxoplasmosis, cryptosporidiosis and other apicomplexan protozoan related diseases” (UNIVERSITY OF WASHINGTON, priority 2015, dated 2019).
Converted amounts (≈) assume the structure as drawn. Read-outs that look alike come from different tables or passages of the source.

Assays:
SnCDPK1 = experiment: Recombinant SnCDPK1 inhibition; assay type: biochemical, Sarcocystis neurona
S. neurona merozoites = experiment: S. neurona growth assay (yellow fluorescent protein-expressing clone); settings: Sarcocystis neurona, read-out: S. neurona EC50
[1] = pH 6.5
in vivo = settings: BALB/c, mouse, po, 10 mg/kg
TgCDPK1 = TgCDPK1 (Toxoplasma gondii, UniProt Q9BJF5); experiment: biochemical
physchem = settings: water, pH 6.5, aqueous buffer
N. caninum [2] = experiment: N. caninum in vitro cultures; assay type: cell-based, Neospora caninum
N. caninum [3] = experiment: Treatment of non-pregnant and pregnant Balb/c mice infected with N. caninum; assay type: in vivo, Neospora caninum
BbCDPK1 = BbCDPK1 (Besnoitia besnoiti, UniProt A0A290U7L2); experiment: BbCDPK1 inhibition; assay type: biochemical
Besnoitia besnoiti = Besnoitia besnoiti in vitro activity; assay type: cell-based
[4] = Rat PK following IV and PO dosing; settings: rats, PO vs IV

Sequence of TgCDPK1 (Q9BJF5 1-507): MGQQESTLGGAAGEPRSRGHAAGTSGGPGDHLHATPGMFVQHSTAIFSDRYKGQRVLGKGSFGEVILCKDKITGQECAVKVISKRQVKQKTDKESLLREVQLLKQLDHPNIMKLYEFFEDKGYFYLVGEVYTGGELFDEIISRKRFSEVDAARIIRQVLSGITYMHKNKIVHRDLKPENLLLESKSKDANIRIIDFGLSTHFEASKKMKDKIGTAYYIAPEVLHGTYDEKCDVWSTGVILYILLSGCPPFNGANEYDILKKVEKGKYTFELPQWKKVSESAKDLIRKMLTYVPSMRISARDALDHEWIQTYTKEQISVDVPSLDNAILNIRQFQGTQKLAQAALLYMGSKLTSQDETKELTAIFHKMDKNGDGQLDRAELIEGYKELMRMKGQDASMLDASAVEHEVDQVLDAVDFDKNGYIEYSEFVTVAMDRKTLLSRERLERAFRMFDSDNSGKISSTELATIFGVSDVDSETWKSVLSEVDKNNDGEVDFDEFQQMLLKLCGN
Sequence of BbCDPK1 (A0A290U7L2 1-497): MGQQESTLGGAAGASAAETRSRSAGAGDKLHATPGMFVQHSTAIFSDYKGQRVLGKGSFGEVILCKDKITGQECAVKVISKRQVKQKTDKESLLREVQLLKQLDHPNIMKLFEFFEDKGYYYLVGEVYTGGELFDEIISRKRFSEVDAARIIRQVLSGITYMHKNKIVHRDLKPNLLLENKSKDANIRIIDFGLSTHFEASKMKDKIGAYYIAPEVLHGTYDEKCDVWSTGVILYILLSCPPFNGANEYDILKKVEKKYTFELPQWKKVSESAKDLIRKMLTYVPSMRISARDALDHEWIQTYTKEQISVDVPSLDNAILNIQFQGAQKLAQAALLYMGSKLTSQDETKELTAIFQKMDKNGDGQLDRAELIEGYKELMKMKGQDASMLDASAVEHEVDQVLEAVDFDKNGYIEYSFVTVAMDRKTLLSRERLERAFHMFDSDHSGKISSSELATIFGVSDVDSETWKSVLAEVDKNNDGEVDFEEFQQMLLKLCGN

Nc1ncnc2c1c(-c1ccc3nccnc3c1)nn2CC1CCNCC1
IC50 (SnCDPK1): > 2000 nM
EC50 (S. neurona merozoites): > 10000 nM

CC(C)(O)Cn1nc(-c2ccc3nc(OC4CC4)ccc3c2)c2c(N)ncnc21 [Example 25, 1-(4-Amino-3-(2-cyclopropoxyquinolin-6-yl)-1H-pyrazolo[3,4-d]pyrimidin-1-yl)-2-methylpropan-2-ol]
IC50 (SnCDPK1): 7.5 nM
EC50 (S. neurona merozoites): 128 nM

Nc1ncnc2c1c(-c1ccc3nc(OC4CC4)ccc3c1)nn2CC1CCOCC1 [Example 22, 3-(2-Cyclopropoxyquinolin-6-yl)-1-((tetrahydro-2H-pyran-4-yl)methyl)-1H-pyrazolo[3,4-d]pyrimidin-4-amine]
Solubility [1]: 17 µM (≈ 7.08 µg/mL)
Cmax (in vivo; female): 880 ± 230 nM
Tmax (in vivo; female): 30 min

COc1ccc2cc(-c3nn(CC4CCOCC4)c4ncnc(N)c34)ccc2n1 [Example 27, 3-(2-methoxyquinolin-6-yl)-1-((tetrahydro-2H-pyran-4-yl)methyl)-1H-pyrazolo[3,4-d]pyrimidin-4-amine]
IC50 (TgCDPK1): 21.2 nM
Cmax (in vivo; female): 3900 ± 1100 nM
Tmax (in vivo; female): 30 min
half-life (in vivo; female): 41 ± 21 min
Solubility (physchem): 8 µM (≈ 3.12 µg/mL)

CC(C)(CO)Cn1nc(-c2ccc3cc(OC4CC4)ccc3c2)c2c(N)ncnc21 [Example 26, 3-(4-Amino-3-(6-cyclopropoxynaphthalen-2-yl)-1H-pyrazolo[3,4-d]pyrimidin-1-yl)-2,2-dimethylpropan-1-ol]
Solubility [1]: 6.2 µM (≈ 2.5 µg/mL)
Cmax (in vivo; female): 390 ± 160 nM

CCOc1ccc2cc(-c3nn(CC4CCN(C)CC4)c4ncnc(N)c34)ccc2c1 [Compound 150]
IC50 (SnCDPK1): 5.9 nM
activity against N. caninum in vitro (N. caninum [2]): effective in treating N. caninum in vitro
treatment of N. caninum infected mice (N. caninum [3]): treats infected mice and rids of N. caninum infection in brain and fetuses
IC50 (BbCDPK1): 4 nM
B. besnoiti EC100 (Besnoitia besnoiti): 2.580 µM
EC50 (Besnoitia besnoiti; Besnoitia besnoiti, read-out: B. besnoiti EC50): 45 nM
Cmax (in vivo): 750 ± 150 nM
EC50 (S. neurona merozoites): 68 nM

CC(C)n1nc(-c2ccc3cc(OC4COC4)ccc3c2)c2c(N)ncnc21 [Example 116, 1-isopropyl-3-(6-(oxetan-3-yloxy)naphthalen-2-yl)-1H-pyrazolo[3,4-d]pyrimidin-4-amine]
IC50 (TgCDPK1): 6.1 nM

COCCOc1ccc2cc(-c3nn(CC(C)(C)C)c4ncnc(N)c34)ccc2n1 [Example 38, 3-(2-(2-methoxyethoxy)quinolin-6-yl)-1-neopentyl-1H-pyrazolo[3,4-d]pyrimidin-4-amine]
IC50 (TgCDPK1): 3.8 nM

COCCOc1ccc2cc(-c3nn(CC4CCN(C)CC4)c4ncnc(N)c34)ccc2n1 [Example 42, 3-(2-(2-methoxyethoxy)quinolin-6-yl)-1-((1-methylpiperidin-4-yl)methyl)-1H-pyrazolo[3,4-d]pyrimidin-4-amine]
IC50 (TgCDPK1): 8 nM

CC(C)(O)C(C)(C)Cn1nc(-c2ccc3nc(OC4CC4)ccc3c2)c2c(N)ncnc21 [Example 56, 4-(4-amino-3-(2-cyclopropoxyquinolin-6-yl)-1H-pyrazolo[3,4-d]pyrimidin-1-yl)-2,3,3-trimethylbutan-2-ol]
IC50 (TgCDPK1): 70.8 nM

CCOc1ccc2cc(-c3nn(CC(C)(C)CO)c4ncnc(N)c34)ccc2n1 [Example 37, 3-(4-amino-3-(2-ethoxyquinolin-6-yl)-1H-pyrazolo[3,4-d]pyrimidin-1-yl)-2,2-dimethylpropan-1-ol]
IC50 (TgCDPK1): 1.7 nM

Nc1ncnc2c1c(-c1ccc3cc(OC4CC4)ccc3c1)nn2CC1(O)CNC1 [Example 90, 3-((4-amino-3-(6-cyclopropoxynaphthalen-2-yl)-1H-pyrazolo[3,4-d]pyrimidin-1-yl)methyl)azetidin-3-ol]
IC50 (TgCDPK1): 5.1 nM

Nc1ncnc2c1c(-c1ccc3cc(OC4CC4)ccc3c1)nn2CC1(O)CCNCC1 [Example 78, 4-((4-amino-3-(6-cyclopropoxynaphthalen-2-yl)-1H-pyrazolo[3,4-d]pyrimidin-1-yl)methyl)piperidin-4-ol]
IC50 (TgCDPK1): 0.7 nM

CCOc1ccc2cc(-c3nn(CC4(O)CCN(C)CC4)c4ncnc(N)c34)ccc2n1 [Example 80, 4-((4-amino-3-(2-ethoxyquinolin-6-yl)-1H-pyrazolo[3,4-d]pyrimidin-1-yl)methyl)-1-methylpiperidin-4-ol]
IC50 (TgCDPK1): 23.1 nM

COC(C)(C)Cn1nc(-c2ccc3nc(OC4CC4)ccc3c2)c2c(N)ncnc21 [Example 67, 3-(2-cyclopropoxyquinolin-6-yl)-1-(2-methoxy-2-methylpropyl)-1H-pyrazolo[3,4-d]pyrimidin-4-amine]
IC50 (TgCDPK1): 430 nM

CCOc1ccc2cc(-c3nn(CC4(C#N)CCN(C)CC4)c4ncnc(N)c34)ccc2c1 [Example 75, 4-((4-amino-3-(6-ethoxynaphthalen-2-yl)-1H-pyrazolo[3,4-d]pyrimidin-1-yl)methyl)-1-methylpiperidine-4-carbonitrile]
IC50 (TgCDPK1): 18.3 nM

CC(C)Cn1nc(-c2ccc3cc(OCC(C)(C)O)ccc3c2)c2c(N)ncnc21 [Example 33, 1-(6-(4-amino-1-isobutyl-1H-pyrazolo[3,4-d]pyrimidin-3-yl)naphthalen-2-yloxy)-2-methylpropan-2-ol]
IC50 (TgCDPK1): 5.7 nM
bioavailability (in words) [4]: essentially complete bioavailability

Nc1ncnc2c1c(-c1ccc3nc(OC4CC4)ccc3c1)nn2CC1(O)CCC1 [Example 57, 1-((4-amino-3-(2-cyclopropoxyquinolin-6-yl)-1H-pyrazolo[3,4-d]pyrimidin-1-yl)methyl)cyclobutanol]
IC50 (TgCDPK1): 6.1 nM

CCOc1ccc2cc(-c3nn(CC4(O)CN(C)C4)c4ncnc(N)c34)ccc2c1 [Example 97, 3-((4-amino-3-(6-ethoxynaphthalen-2-yl)-1H-pyrazolo[3,4-d]pyrimidin-1-yl)methyl)-1-methylazetidin-3-ol]
IC50 (TgCDPK1): 2.6 nM

Nc1ncnc2c1c(-c1ccc3cc(OC4COC4)ccc3c1)nn2CC1CCOCC1 [Example 31, 3-(6-(oxetan-3-yloxy)naphthalen-2-yl)-1-((tetrahydro-2H-pyran-4-yl)methyl)-1H-pyrazolo[3,4-d]pyrimidin-4-amine]
IC50 (TgCDPK1): 35.8 nM

CN1CC(O)(Cn2nc(-c3ccc4nc(OC5CC5)ccc4c3)c3c(N)ncnc32)C1 [Example 103, 3-((4-amino-3-(2-cyclopropoxyquinolin-6-yl)-1H-pyrazolo[3,4-d]pyrimidin-1-yl)methyl)-1-methylazetidin-3-ol]
IC50 (TgCDPK1): 4.8 nM

CCOc1ccc2ccc(-c3nn(CC(C)C)c4ncnc(N)c34)cc2c1 [Example 47, 3-(7-ethoxynaphthalen-2-yl)-1-isobutyl-1H-pyrazolo[3,4-d]pyrimidin-4-amine]
IC50 (TgCDPK1): 10.8 nM

CN1CCC(O)(Cn2nc(-c3ccc4cc(OC(F)F)ccc4c3)c3c(N)ncnc32)CC1 [Example 99, 4-((4-amino-3-(6-(difluoromethoxy)naphthalen-2-yl)-1H-pyrazolo[3,4-d]pyrimidin-1-yl)methyl)-1-methylpiperidin-4-ol]
IC50 (TgCDPK1): 35.8 nM

CCOc1ccc2cc(-c3nn(C(C)C)c4ncnc(N)c34)ccc2n1 [Example 106, 3-(2-ethoxyquinolin-6-yl)-1-isopropyl-1H-pyrazolo[3,4-d]pyrimidin-4-amine]
IC50 (TgCDPK1): 2 nM
